From patent US8003655B2, “Substituted sulphoximines as TIE2 inhibitors and salts thereof, pharmaceutical compositions comprising same, methods of preparing same and uses of same” (Bayer Schering Pharma AG, priority 2006, dated 2011) come the findings set out here.

What all share (assay type): biochemical
One experiment has as its target T1, CDK2/CycE (Homo sapiens, UniProt P24941).
T1 construct: GST; purchased ProQinase GmbH (Freiburg, Germany); host or cells: insect cells (Sf9)
As to the kind of experiment: CDK2 HTRF Assay (assay 4). Conditions: 10 μM ATP, pIC50 = −log IC50 in molar concentration. An excerpt:
CDK2/CycE-inhibitory activity of compounds of the present invention was quantified employing the CDK2/CycE HTRF assay as described in the following paragraphs.
Recombinant fusion proteins of GST and human CDK2 and of GST and human CycE, expressed in insect cells (Sf9) and purified by Glutathion-Sepharose affinity chromatography, were purchase from ProQinase GmbH (Freiburg, Germany). As substrate for the kinase reaction biotinylated peptide biotin-Ttds-YISPLKSPYKISEG (C-terminus in amid form) was used which can be purchased e.g. form the company JERINI peptide technologies (Berlin, Germany).
CDK2/CycE was incubated for 60 min at 22° C. in the presence of different concentrations of test compounds in 5 μl assay buffer [50 mM Tris/HCl pH 8.0, 10 mM MgCl2, 1.0 mM dithiothreitol, 0.1 mM sodium ortho-vanadate, 10 μM adenosine-tri-phosphate (ATP), 0.75 μM substrate, 0.01% (v/v) Nonidet-P40 (Sigma), 1% (v/v) dimethylsulfoxide]. The concentration of CDK2/CycE was adjusted depending of the activity of the enzyme lot and was chosen appropriate to have the assay in the linear range, typical concentrations were in the range of 1 ng/ml. The reaction was stopped by the addition of 5 μl of a solution of HTRF detection reagents (0.2 μM streptavidine-XLent and 3.4 nM Phospho-(Ser) CDKs Substrate Antibody [product #2324B, Cell Signalling Technology, Danvers, Mass., USA} and 4 nM Prot-A-EuK [Protein A labeled with Europium Cryptate from Cis biointernational, France, product no. 61PRAKLB]) in an aqueous EDTA-solution (100 mM EDTA, 800 mM KF, 0.2% (w/v) bovine serum albumin in 100 mM HEPES/NaOH pH 7.0).
In general terms: In TR-FRET formats the signal depends on donor and acceptor labels being close together.

The target in a further experiment is T2, Tie2 (Homo sapiens, UniProt Q02763).
T2 construct: A recombinant fusion protein of GST and the intracellular domains of Tie2; GST; made in house; host or cells: insect cells (Hi-5)
T2 sequence (Q02763 770-1124 limits assumed): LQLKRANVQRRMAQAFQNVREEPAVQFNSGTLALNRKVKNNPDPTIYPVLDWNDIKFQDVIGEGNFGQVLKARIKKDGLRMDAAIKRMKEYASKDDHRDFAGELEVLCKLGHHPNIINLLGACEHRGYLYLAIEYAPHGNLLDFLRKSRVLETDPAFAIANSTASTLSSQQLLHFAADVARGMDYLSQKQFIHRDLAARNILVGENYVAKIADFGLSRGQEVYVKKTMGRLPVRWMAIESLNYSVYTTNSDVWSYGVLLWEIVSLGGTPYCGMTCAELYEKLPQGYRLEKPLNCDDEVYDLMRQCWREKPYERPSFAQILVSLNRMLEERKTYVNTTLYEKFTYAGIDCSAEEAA
Nature of the experiment: Tie2-Kinase HTRF-Assay without kinase preactivation (assay 2). Conditions: 10 μM ATP, pIC50 = −log IC50 in molar concentration, read-out: Tie 2 activity (assay 2). An excerpt:
Tie2-inhibitory activity of compounds of the present invention was quantified employing two Tie2 HTRF assay as described in the following paragraphs.
A recombinant fusion protein of GST and the intracellular domains of Tie2, expressed in insect cells (Hi-5) and purified by Glutathion-Sepharose affinity chromatography was used as kinase. Alternatively, commercially available GST-Tie2-fusion protein (Upstate Biotechnology, Dundee, Scotland) can be used as substrate for the kinase reaction the biotinylated peptide biotin-Ahx-EPKDDAYPLYSDFG (C-terminus in amid form) was used which can be purchased e.g. from the company Biosynthan GmbH (Berlin-Buch, Germany). Detection of phosphorylated product is achieved specifically by a trimeric detection complex consisting of the phosphorylated substrate, streptavidin-XLent (SA-XLent) which binds to biotin, and Europium Cryptate-labeled anti-phosphotyrosine antibody PT66 which binds to phosphorylated tyrosine.
Tie2 (3.5 ng/measurement point) was incubated for 60 min at 22° C. in the presence of 10 μM adenosine-tri-phosphate (ATP) and 1 μM substrate peptide (biotin-Ahx-EPKDDAYPLYSDFG-NH2) with different concentrations of test compounds (0 μM and concentrations in the range 0.001-20 μM) in 5 μl assay buffer [50 mM Hepes/NaOH pH 7, 10 mM MgCl2, 0.5 mM MnCl2, 1.0 mM dithiothreitol, 0.01% NP40, protease inhibitor mixture (“Complete w/o EDTA” from Roche, 1 tablet per 2.5 ml), 1% (v/v) dimethylsulfoxide]. The reaction was stopped by the addition of 5 μl of an aqueous buffer (25 mM Hepes/NaOH pH 7.5, 0.28% (w/v) bovine serum albumin) containing EDTA (90 mM) and the HTRF (Homogeneous Time Resolved Fluorescence) detection reagents streptavidine-XLent (0.2 μM, from Cis Biointernational, Marcoule, France) and PT66-Eu-Chelate (0.3 ng/μl; a europium-chelate labelled anti-phospho-tyrosine antibody from Perkin Elmer).
(§1) The resulting mixture was incubated 1 h at 22° C. to allow the binding of the biotinylated phosphorylated peptide to the streptavidine-XLent and the PT66-Eu-Chelate. Subsequently the amount of phosphorylated substrate peptide was evaluated by measurement of the resonance energy transfer from the PT66-Eu-Chelate to the streptavidine-XLent. Therefore, the fluorescence emissions at 620 nm and 665 nm after excitation at 350 nm was measured in a HTRF reader, e.g. a Rubystar (BMG Labtechnologies, Offenburg, Germany) or a Viewlux (Perkin-Elmer). The ratio of the emissions at 665 nm and at […] was taken as the measure for the amount of phosphorylated substrate peptide. The data were normalised (enzyme reaction without inhibitor=0% inhibition, all other assay components but no enzyme=100% inhibition) and IC50 values were calculated by a 4 parameter fit using an inhouse software.

The next experiment has as its target T3, preactivated Tie2 (Homo sapiens, UniProt Q02763).
T3 construct: A recombinant fusion protein of GST and the intracellular domains of Tie2; GST; made in house; host or cells: insect cells (Hi-5)
As to the kind of experiment: Tie2-Kinase HTRF-Assay with kinase preactivation (assay 3). The following applies: 10 μM ATP, pIC50 = −log IC50 in molar concentration, read-out: Tie 2 activity (assay 3). As to the method: Assay 3: Tie2-Kinase HTRF-Assay with Kinase Preactivation
A recombinant fusion protein of GST and the intracellular domains of Tie2, expressed in insect cells (Hi-5) and purified by Glutathion-Sepharose affinity chromatography was used as kinase. As substrate for the kinase reaction the biotinylated peptide biotin-Ahx-EPKDDAYPLYSDFG (C-terminus in amid form) was used which can be purchased e.g. from the company Biosynthan GmbH (Berlin-Buch, Germany).
For activation, Tie2 was incubated at a conc. 12.5 ng/μl of for 20 min at 22° C. in the presence of 250 μM adenosine-tri-phosphate (ATP) in assay buffer [50 mM Hepes/NaOH pH 7, 10 mM MgCl2, 0.5 mM MnCl2, 1.0 mM dithiothreitol, 0.01% NP40, protease inhibitor mixture (“Complete w/o EDTA” from Roche, 1 tablet per 2.5 ml)].
For the subsequent kinase reaction, the preactivated Tie2 (0.5 ng/measurement point) was incubated for 20 min at 22° C. in the presence of 10 μM adenosine-tri-phosphate (ATP) and 1 μM substrate peptide (biotin-Ahx-EPKDDAYPLYSDFG-NH2) with different concentrations of test compounds (0 μM and concentrations in the range 0.001-20 μM) in 5 μl assay buffer [50 mM Hepes/NaOH pH 7, 10 mM MgCl2, 0.5 mM MnCl2, 0.1 mM sodium ortho-vanadate, 1.0 mM dithiothreitol, 0.01% NP40, protease inhibitor mixture (“Complete w/o EDTA” from Roche, 1 tablet per 2.5 ml), 1% (v/v) dimethylsulfoxide]. The reaction was stopped by the addition of 5 μl of an aqueous buffer (25 mM Hepes/NaOH pH 7.5, 0.28% (w/v) bovine serum albumin) containing EDTA (90 mM) and the HTRF (Homogeneous Time Resolved Fluorescence) detection reagents streptavidine-XLent (0.2 μM, from Cis Biointernational, Marcoule, France) and PT66-Eu-Chelate (0.3 ng/μl; a europium-chelate labelled anti-phospho-tyrosine antibody from Perkin Elmer).
as §1

T3 sequence (Q02763 770-1124 limits assumed): as above

For `CCOC(=O)N=S(C)(=O)c1cccc(Nc2ncc(-c3ccc(NS(=O)(=O)c4cccc(Cl)c4Cl)c(F)c3)c(N[C@H](C)CO)n2)c1` (mixture of isomers) [Example 13, 2,3-Dichloro-N-{4-[2-({3-[(RS)-N-(ethoxycarbonyl)-S-methylsulfonimidoyl]phenyl}amino)-4-{[(R)-2-hydroxy-1-methylethyl]amino}-pyrimidin-5-yl]-2-fluorophenyl}-benzenesulfonamide], the IC50 on CDK2/CycE is over 10000 nM; at Tie2, 100 to 1000 nM; at preactivated Tie2, 100 to 1000 nM.
Turning to `CCOC(=O)N=S(C)(=O)c1cccc(Nc2ncc(-c3ccc(NC(=O)Nc4cc(C(F)(F)F)ccc4F)c(F)c3)c(SC)n2)c1` (racemic) [Example 17, 1-{4-[2-({3-[(RS)-N-(Ethoxycarbonyl)-S-methylsulfonimidoyl]phenyl}amino)-4-(methylsulfanyl)pyrimidin-5-yl]-2-fluorophenyl}-3-[2-fluoro-5-(trifluoromethyl)phenyl]urea], the IC50 is over 10000 nM against CDK2/CycE and under 100 nM at Tie2.
On to `CC(C)NC(=O)N=S(C)(=O)c1cccc(Nc2ncc(-c3ccc(NC(=O)Nc4cccc(C(F)(F)F)c4)cc3)c(N[C@H](C)CO)n2)c1` (mixture of isomers) [Example 14, 1-{4-[4-{[(R)-2-hydroxy-1-methylethyl]amino}-2-({3-[(RS)-N-(isopropylcarbamoyl) -S-methylsulfonimidoyl]phenyl}amino)-pyrimidin-5-yl]phenyl}-3-[3-(trifluoromethyl)-phenyl]urea], for which the figures for the IC50 at CDK2/CycE and on Tie2 were over 10000 nM and 100 to 1000 nM, respectively.
Turning to `CCOC(=O)N=S(C)(=O)c1cccc(Nc2ncc(-c3ccc(NC(=O)Nc4cccc(C(F)(F)F)c4)cc3)c(N[C@H](C)CO)n2)c1` (mixture of isomers) [Example 10, 1-{4-[2-({3-[(RS)-N-(Ethoxycarbonyl)-S-methylsulfonimidoyl]phenyl}amino)-4-{[(R)-2-hydroxy-1-methylethyl]amino}-pyrimidin-5-yl]-phenyl}-3-[3-(trifluoromethyl)-phenyl]urea], the IC50 is over 10000 nM at CDK2/CycE and 100 to 1000 nM on Tie2.
The like results for `C[C@H](CO)Nc1nc(Nc2cccc(S(C)(=N)=O)c2)ncc1-c1ccc(NC(=O)Nc2cccc(C(F)(F)F)c2)cc1` (mixture of isomers) [Example 39, 1-[4-(4-{[(R)-2-Hydroxy-1-methylethyl]amino}-2-{[3-(RS)-(S-methylsulfonimidoyl)phenyl]amino}-pyrimidin-5-yl)phenyl]-3-[3-(trifluoromethyl)-phenyl]urea] were, in that order, over 10000 nM and under 100 nM.
As for `C[C@H](CO)Nc1nc(Nc2ccc(S(C)(=N)=O)cc2)ncc1-c1ccc(NS(=O)(=O)c2cccc(Cl)c2Cl)cc1` (mixture of isomers) [Example 24], the IC50 against CDK2/CycE is over 10000 nM; on Tie2 it was 100 to 1000 nM.
`CCOC(=O)N=S(C)(=O)c1cccc(Nc2ncc(-c3ccc(NC(=O)Nc4cc(C(F)(F)F)ccc4F)c(F)c3)c(NCCN3CCOCC3)n2)c1` (racemic) [Example 29, 1-{4-[2-({3-[(RS)-N-(Ethoxycarbonyl)-S-methylsulfonimidoyl]phenyl}amino)-4-{[2-(morpholin-4-yl)ethyl]amino}pyri-midin-5-yl]-2-fluorophenyl}-3-[2-fluoro-5-(trifluoromethyl)-phenyl]urea]: the IC50 at CDK2/CycE was over 10000 nM; on Tie2 it was under 100 nM.
Consider `CS(=N)(=O)c1cccc(Nc2ncc(-c3ccc(NC(=O)Nc4cc(C(F)(F)F)ccc4F)c(F)c3)c(NCCc3ccccc3)n2)c1` (racemic) [Example 48, 1-[2-Fluoro-4-(2-{[3-(RS)-(S-methylsulfonimidoyl)phenyl]amino}-4-[(2-phenylethyl)amino]-pyrimidin-5-yl)phenyl]-3-[2-fluoro-5-(trifluoromethyl)-phenyl]urea], for which the IC50 against CDK2/CycE was over 10000 nM; at Tie2, 100 to 1000 nM.
The like results for `CSc1nc(Nc2cccc(S(C)(=N)=O)c2)ncc1-c1ccc(NC(=O)Nc2cc(C(F)(F)F)ccc2F)c(F)c1` (racemic) [Example 44, 1-{2-Fluoro-4-[2-{[3-(RS)-(S-methylsulfonimidoyl)phenyl]amino}-4-(methylthio)-pyrimidin-5-yl]phenyl}-3-[2-fluoro-5-(trifluoromethyl)-phenyl]urea] were, in that order, over 10000 nM and under 100 nM.
As for `CCOC(=O)N=S(C)(=O)c1ccc(Nc2ncc(-c3ccc(NC(=O)C4(c5ccccc5)CC4)cc3)c(N[C@H](C)CO)n2)cc1` (mixture of isomers) [Example 1, N-{4-[2-({4-[(RS)-N-(Ethoxycarbonyl)-S-methylsulfonimidoyl]phenyl}amino)-4-{[(R)-2-hydroxy-1-methylethyl]amino}-pyrimidin-5-yl]phenyl}-1-phenylcyclopropanecarboxamide], the IC50 at CDK2/CycE was over 10000 nM; at Tie2 it was 100 to 1000 nM.
The like results for `CCOC(=O)N=S(C)(=O)c1ccc(Nc2ncc(-c3ccc(NC(=O)Nc4ccccc4)cc3)c(N[C@H](C)CO)n2)cc1` (mixture of isomers) [Example 6, 1-{4-[2-({4-[(RS)-N-(Ethoxycarbonyl)-S-methylsulfonimidoyl]phenyl}amino)-4-{[(R)-2-hydroxy-1-methylethyl]amino}-pyrimidin-5-yl]-phenyl}-3-[phenyl]urea] were, in that order, over 10000 nM and 100 to 1000 nM.
